Counter-ions that a name gives are not always drawn.
What was measured:
[1] = system: chronic myeloid leukemia cell line K562 cells; test: Flow cytometry binding of FITC-labeled peptide to K562 cells; type: cell-based, human; conditions: 0.1 and 0.5 μM, 0.5 h
Description: (§1) Fig. S1. Affinity of PO-6 and ^mPO-6 to different leukemia cells. The MOLM-13, K562 or HL-60 cells was incubated with PO-6 or ^mPO-6 at 0.1 and 0.5 μM for 0.5 h. Resulting cells were collected and subjected to C6 Accuri® flow cytometer.
(§2) MOLM-13, HL-60 and K562 cells of 4×10^5/mL were incubated with FITC-labeled PO-6 or ^mPO-6 at 0.1 μM and 0.5 μM for 0.5 h. After twice washed with PBS, subjected to C6 Accuri® flow cytometer (Accuri Cytometers, Ann Arbor, MI) and 1×10^4 cells were collected. Acquired data were analyzed by CFlow Plus software.

[2] = system: CD123^− AML cell line HL-60; test: Flow cytometry binding of FITC-labeled peptide to HL-60 cells; type: cell-based, human; conditions: 0.1 and 0.5 μM, 0.5 h
Description: as §1, §2

[3] = system: CD123^+ AML cell line MOLM-13 cells; test: Flow cytometry binding of FITC-labeled peptide/micelles to MOLM-13 cells; type: cell-based, human; conditions: 0.1 and 0.5 μM, 0.5 h
Description: Fig. 1 A Affinity of ^mPO-6 to MOLM-13 cells incubated at 0.1 and 0.5 μM for 0.5 h. B Images of ^mPO-6 bound with MOLM-13 cells at 0.1 μM for 0.5 h obtained from the laser confocal microscopy. C Effects of ^mPO-6 on the cell viability in the presence of IL-3 (n = 4). D and E Effects of ^mPO-6 on the cell viability of the primary AML blasts.
as §1, §2

AE & CKIT^D816V mice = test: Survival experiments of Ara-C or HHT in AE & CKIT^D816V AML mice; type: in vivo, mouse; conditions: for median survival of AML mice treated with HHT: 250 μg/kg i.p. every 2 days from day 9, n=8; for median survival of AML mice treated with Ara-C: 25, 50 and 100 mg/kg i.p. daily for 4 days from day 9, versus Con, n=9
Description: The regimen of cytarabine hydrochloride (Ara-C): On day 9 after AE & CKIT^D816V cells implantation, the mice were randomly divided into 4 groups (n=9) including Con (5% glucose), 25, 50 and 100 mg/kg Ara-C. All mice were treated with daily intraperitoneal (i.p.) injections for 4 days and stopped. The survival of the mice was recorded every day.
The regimen of homoharringtonine (HHT): On day 9 after AE & CKIT^D816V cells implantation, the mice were randomly divided into 2 groups (n=8) and i.p. injected with 5% glucose and 250 μg/kg HHT. The administration was given every 2 days. The survival of the mice was recorded every day.
Fig. S7. Therapeutic efficacy of Ara-C or HHT in AE & CKIT^D816V mice. (A) The median survival of AML mice treated with Ara-C was not prolonged compared with the Con group (n=9). […] On day 9 after AE & CKIT^D816V cells implantation, AML mice were treated with i.p. injection of 5% glucose, Ara-C (25, 50 and 100 mg/kg) or HHT (250 μg/kg) as the regimens described.

## DDDYDTRAQGTDIGCDFRRISDDD [PO-6]
[1]
  binding to K562 cells: weakly bind
[2]
  binding to HL-60 cells: weakly bind
[3]
  binding to MOLM-13 cells: effectively bind

## COC(=O)C[C@](O)(CCCC(C)(C)O)C(=O)O[C@@H]1C(OC)=C[C@]23CCCN2CCc2cc4c(cc2[C@H]13)OCO4 [homoharringtonine]
AE & CKIT^D816V mice
  median survival of AML mice treated with HHT: did not respond
AE & CKIT^D816V mice; listed as HHT
  median survival of AML mice treated with HHT: did not prolong the AML mice median survival significantly

## Nc1ccn([C@@H]2O[C@H](CO)[C@@H](O)[C@@H]2O)c(=O)n1 [cytarabine hydrochloride]
AE & CKIT^D816V mice
  median survival of AML mice treated with Ara-C: did not respond
AE & CKIT^D816V mice; listed as Ara-C
  median survival of AML mice treated with Ara-C: not prolonged

Reference: publication PMC8590286, “A novel CD123-targeted therapeutic peptide loaded by micellar delivery system combats refractory acute myeloid leukemia” (Journal of Hematology & Oncology, 2021)
